Experimental data as given in EP1206258B1, “COMPOSITIONS CONTAINING ESTERS FOR TREATING PARASITIC INFESTATIONS OF ORGANISMS” (priority 1999, dated 2001).

What was measured:
[1] = tested on: Aspergillus nidulans; test: growth inhibition test on SAB agar, A. nidulans; type: cell-based
Description: (§1) The antifungal activity of ethyl trans-cinnamate against a number of different fungi was investigated by means of in a simple growth inhibition test.
(§2) The following quantities of Ethyl trans-Cinnamate were added to Sabourand Dextrose agar (SAB); 50 ml L^-1, 4ml L^-1, 2ml L^-1, 1ml L^-1, 400 µl L^-1, 200 µl L^-1 and 40 µl L^-1. […] These were then autoclaved and poured into standard Petri dishes. […] Duplicate plates of each concentration, plus control plates containing only SAB Agar, where then separately inoculated with, four different species of fungi, these were Aspergillus nidulans, Penicillium digitatum, Rhizopus arrhizus and Fusarium culmorum. Inoculation was carried out using a single stab at the centre of each Petri dish. The plates were then incubated at 30°C for 6 days and daily measurements of mycobial growth where taken every 24 hours.

[2] = tested on: human volunteers; conditions: 24 hour closed-patch test, 25 human volunteers (Kligman 1973); cited from earlier work
[3] = tested on: all stages of blow fly and larval life cycle; test: activity against blow fly and larval stages
[4] = tested on: Acarus siro; test: residual filter paper bioassay on Acarus siro (Table 2a)
Description: The effect of trans-cinnamic acid ethyl ester on the mite Acarus siro was investigated using a residual filter paper bioassay. Seven samples of 0.01g of mite culture was placed on 7, 90mm Whatman™ filter papers. Each paper was previously treated with 745µl of a solution containing trans-cinnamic acid ethyl ester at concentrations varying from 74.64µl to 7.64 x 10^-4 µl/petri dish respectively and allowed to dry for 15 minutes. The controls were treated in the same way except ethanol (HPLC grade) was used as this was sample dilutant. Percentage control was calculated as in W.S. Abbot, A Method of Computing the Effectiveness of an Insecticide, Journal of Economic Entomology (1925) 18, 265-267.

[5] = tested on: Penicillium digitatum; test: growth inhibition test on SAB agar, P. digitatum; type: cell-based; design: key to Growth of P. digitatum: - = No Growth; + = Growth; ++ = Extensive Growth
Description: as §1, §2

[6] = tested on: Guinea Pig; conditions: Oral, VPITAR 33(5)48,74; cited from earlier work
[7] = tested on: mealworms, T.molibr; test: filter paper treatment of mealworms; conditions: 5 mealworms
Source text: Additionally, it was also noted that Ethyl cinnamate is toxic to insects, at least mealworms, T.molibr. […] 5 mealworms were placed onto each filter paper treatment. Although all were of the same instar, the 10-1 individuals were slightly larger. […] 10-7 did die. Therefore, the size of larvae appears to be important.

For `CCOC(=O)/C=C/c1ccccc1` [trans-cinnamic acid ethyl ester], the “Level of Radial Growth (mm) of A. nidulans” value (“Level of Radial Growth” for short) ([1]; 1ml L^-1, Day 1) was 0 mm, the “Level of Radial Growth” value ([1]; 1ml L^-1, Day 2) was 0 mm and the “Level of Radial Growth” value ([1]; 1ml L^-1, Day 3) was 6.0 mm. For the same compound, the “Level of Radial Growth” value ([1]; 1ml L^-1, Day 4) was 11.5 mm, the “Level of Radial Growth” value ([1]; 1ml L^-1, Day 5) was 16.5 mm and the “Level of Radial Growth” value ([1]; 1ml L^-1, Day 6) was 22.0 mm. The “Level of Radial Growth” value ([1]; 2ml L^-1, Day 1) was 0 mm, the “Level of Radial Growth” value ([1]; 2ml L^-1, Day 2) was 0 mm and the “Level of Radial Growth” value ([1]; 2ml L^-1, Day 3) was 0 mm. The “Level of Radial Growth” value ([1]; 2ml L^-1, Day 4) was 0 mm, the “Level of Radial Growth” value ([1]; 2ml L^-1, Day 5) was 6.5 mm and the “Level of Radial Growth” value ([1]; 2ml L^-1, Day 6) was 12.5 mm. The “Level of Radial Growth” value ([1]; 4ml L^-1, Day 1) was 0 mm, the “Level of Radial Growth” value ([1]; 4ml L^-1, Day 2) was 0 mm and the “Level of Radial Growth” value ([1]; 4ml L^-1, Day 3) was 0 mm. For the same compound, the “Level of Radial Growth” value ([1]; 4ml L^-1, Day 4) was 0 mm, the “Level of Radial Growth” value ([1]; 4ml L^-1, Day 5) was 0 mm and the “Level of Radial Growth” value ([1]; 4ml L^-1, Day 6) was 4.5 mm. The “Level of Radial Growth” value ([1]; 40µl L^-1, Day 1) was 0 mm, the “Level of Radial Growth” value ([1]; 40µl L^-1, Day 2) was 12.0 mm and the “Level of Radial Growth” value ([1]; 40µl L^-1, Day 3) was 23.0 mm. The “Level of Radial Growth” value ([1]; 40µl L^-1, Day 4) was 27.0 mm, the “Level of Radial Growth” value ([1]; 40µl L^-1, Day 5) was 32.5 mm and the “Level of Radial Growth” value ([1]; 40µl L^-1, Day 6) was 38 mm. For the same compound, the inhibition of growth ([1]; 50ml L-^1 level) was “complete inhibition of growth”, the “Level of Radial Growth” value ([1]; 50 ml L^-1, Day 1) was 0 mm and the “Level of Radial Growth” value ([1]; 50 ml L^-1, Day 2) was 0 mm. For the same compound, the “Level of Radial Growth” value ([1]; 50 ml L^-1, Day 3) was 0 mm, the “Level of Radial Growth” value ([1]; 50 ml L^-1, Day 4) was 0 mm and the “Level of Radial Growth” value ([1]; 50 ml L^-1, Day 5) was 0 mm. For the same compound, the “Level of Radial Growth” value ([1]; 50 ml L^-1, Day 6) was 0 mm, the “Level of Radial Growth” value ([1]; 200µl L^-1, Day 1) was 0 mm and the “Level of Radial Growth” value ([1]; 200µl L^-1, Day 2) was 9.5 mm. The “Level of Radial Growth” value ([1]; 200µl L^-1, Day 3) was 16.5 mm, the “Level of Radial Growth” value ([1]; 200µl L^-1, Day 4) was 23.0 mm and the “Level of Radial Growth” value ([1]; 200µl L^-1, Day 5) was 28.0 mm. The “Level of Radial Growth” value ([1]; 200µl L^-1, Day 6) was 34.5 mm, the “Level of Radial Growth” value ([1]; 400µl L^-1, Day 1) was 0 mm and the “Level of Radial Growth” value ([1]; 400µl L^-1, Day 2) was 5.5 mm. The “Level of Radial Growth” value ([1]; 400µl L^-1, Day 3) was 11.5 mm, the “Level of Radial Growth” value ([1]; 400µl L^-1, Day 4) was 18.0 mm and the “Level of Radial Growth” value ([1]; 400µl L^-1, Day 5) was 24.5 mm. The “Level of Radial Growth” value ([1]; 400µl L^-1, Day 6) was 30.0 mm, the sensitization [2] was “no sensitization” and the “effectiveness against all stages of blow fly and larval life cycle” value [3] was “ineffective”. The percentage control figure ([4]; 7.64µl/petri dish) was 100%, the “Mean Percentage Mortality Over Control” value ([4]; Concentration (µl) 3.20) was 95.57 and the “Mean Percentage Mortality Over Control” value ([4]; Concentration (µl) 3.20 x 10^1) was 100.00. For the same compound, the “Mean Percentage Mortality Over Control” value ([4]; Concentration (µl) 3.20 x 10^-1) was 97.74, the “Mean Percentage Mortality Over Control” value ([4]; Concentration (µl) 3.20 x 10^-2) was 69.51 and the “Mean Percentage Mortality Over Control” value ([4]; Concentration (µl) 3.20 x 10^-3) was 32.95. For the same compound, the “Mean Percentage Mortality Over Control” value ([4]; Concentration (µl) 3.20 x 10^-4) was 6.33, the “Growth of P. digitatum” value ([5]; 1ml L^-1, Day 1) was “-” and the “Growth of P. digitatum” value ([5]; 1ml L^-1, Day 2) was “-”. For the same compound, the “Growth of P. digitatum” value ([5]; 1ml L^-1, Day 3) was “-”, the “Growth of P. digitatum” value ([5]; 1ml L^-1, Day 4) was “+” and the “Growth of P. digitatum” value ([5]; 1ml L^-1, Day 5) was “+”. For the same compound, the “Growth of P. digitatum” value ([5]; 1ml L^-1, Day 6) was “+”, the “Growth of P. digitatum” value ([5]; 2ml L^-1, Day 1) was “-” and the “Growth of P. digitatum” value ([5]; 2ml L^-1, Day 2) was “-”. For the same compound, the “Growth of P. digitatum” value ([5]; 2ml L^-1, Day 3) was “-”, the “Growth of P. digitatum” value ([5]; 2ml L^-1, Day 4) was “-” and the “Growth of P. digitatum” value ([5]; 2ml L^-1, Day 5) was “-”. The “Growth of P. digitatum” value ([5]; 2ml L^-1, Day 6) was “-”, the “Growth of P. digitatum” value ([5]; 4ml L^-1, Day 1) was “-” and the “Growth of P. digitatum” value ([5]; 4ml L^-1, Day 2) was “-”. The “Growth of P. digitatum” value ([5]; 4ml L^-1, Day 3) was “-”, the “Growth of P. digitatum” value ([5]; 4ml L^-1, Day 4) was “-” and the “Growth of P. digitatum” value ([5]; 4ml L^-1, Day 5) was “-”. The “Growth of P. digitatum” value ([5]; 4ml L^-1, Day 6) was “-”, the “Growth of P. digitatum” value ([5]; 40µl L^-1, Day 1) was “-” and the “Growth of P. digitatum” value ([5]; 40µl L^-1, Day 2) was “++”. The “Growth of P. digitatum” value ([5]; 40µl L^-1, Day 3) was “++”, the “Growth of P. digitatum” value ([5]; 40µl L^-1, Day 4) was “++” and the “Growth of P. digitatum” value ([5]; 40µl L^-1, Day 5) was “++”. The “Growth of P. digitatum” value ([5]; 40µl L^-1, Day 6) was “++”, the “duration of complete inhibition of growth” value ([5]; 50ml L-^1 and higher doses, further experiments, data not shown) was “at least 8 days” and the inhibition of growth ([5]; 50ml L-^1 level) was “complete inhibition of growth”. For the same compound, the “Growth of P. digitatum” value ([5]; 50 ml L^-1, Day 1) was “-”, the “Growth of P. digitatum” value ([5]; 50 ml L^-1, Day 2) was “-” and the “Growth of P. digitatum” value ([5]; 50 ml L^-1, Day 3) was “-”. For the same compound, the “Growth of P. digitatum” value ([5]; 50 ml L^-1, Day 4) was “-”, the “Growth of P. digitatum” value ([5]; 50 ml L^-1, Day 5) was “-” and the “Growth of P. digitatum” value ([5]; 50 ml L^-1, Day 6) was “-”. For the same compound, the “Growth of P. digitatum” value ([5]; 200µl L^-1, Day 1) was “-”, the “Growth of P. digitatum” value ([5]; 200µl L^-1, Day 2) was “++” and the “Growth of P. digitatum” value ([5]; 200µl L^-1, Day 3) was “++”. The “Growth of P. digitatum” value ([5]; 200µl L^-1, Day 4) was “++”, the “Growth of P. digitatum” value ([5]; 200µl L^-1, Day 5) was “++” and the “Growth of P. digitatum” value ([5]; 200µl L^-1, Day 6) was “++”. The “Growth of P. digitatum” value ([5]; 400µl L^-1, Day 1) was “-”, the “Growth of P. digitatum” value ([5]; 400µl L^-1, Day 2) was “+” and the “Growth of P. digitatum” value ([5]; 400µl L^-1, Day 3) was “++”. The “Growth of P. digitatum” value ([5]; 400µl L^-1, Day 4) was “++”, the “Growth of P. digitatum” value ([5]; 400µl L^-1, Day 5) was “++” and the “Growth of P. digitatum” value ([5]; 400µl L^-1, Day 6) was “++”. For the same compound, the LDSO [6] was 4000 mg/kg, the death of mealworms ([7]; concentration 10-1, slightly larger individuals, moulted after two days) was “did not die” and the death of mealworms ([7]; concentration printed 10-7) was “did die”.
